Source: publication PMC12017303 (Science Advances, 2025)

System: α-HCoV 229E, β-HCoV OC43, MERS-CoV, SARS-CoV, SARS-CoV-2 variants (Delta, BA.2)
Type: cell-based
Conditions: read-out: EC50 against all tested variants

C#CCn1c(C)c(-n2nnc3ccccc32)c(=O)n(-c2cncc3ccccc23)c1=O [AVI-4516]
EC50: < 3000 nM
